Measurements from BindingDB's records for patent WO2022070069 (JANSSEN BIOTECH, INC., 2022).

Molecular target: Dihydroorotate dehydrogenase (quinone), mitochondrial (Homo sapiens, UniProt Q02127)
Assay: DHODH enzymatic assay
Experimental: To detect DHODH enzyme activities, dichloroindophenol (DCIP) is added as the final electron acceptor in the assay. DCIP can accept electrons from the reduced coenzyme Q generated in the assay, or from dihydroorotate (DHO) via FMN by binding presumably to the ubiquinone pocket. DCIP solutions are blue, with an intense absorbance around 600 nm, but becomes colorless upon reduction (J. Biol. Chem. (1986) 261, 11386). The assay buffer contained […], pH 7.5, 150 mM NaCl, 0.5 mM EDTA, and 0.1% Triton X-100 in MilliQ water. Substrate consisting of 20 mM DHO, 5mM CoQ6, and 1mM DCIP in assay buffer, initiates the reaction. The assay is run in end-point mode by quenching the reaction with the potent DHODH inhibitor brequinar. Absorbance measurements were obtained using the BMG Phera Star plate-reading spectrophotomer. Purified human DHODH was purchased from Proteros (cat. No. PR-0044). Chemicals were purchased from Sigma-Aldrich, Teknova, and Avanti Polar Lipids. Liquid handling was performed using Labcyte Echo and Formulatrix Tempest.

Sequence of Dihydroorotate dehydrogenase (quinone), mitochondrial (Q02127 whole entry): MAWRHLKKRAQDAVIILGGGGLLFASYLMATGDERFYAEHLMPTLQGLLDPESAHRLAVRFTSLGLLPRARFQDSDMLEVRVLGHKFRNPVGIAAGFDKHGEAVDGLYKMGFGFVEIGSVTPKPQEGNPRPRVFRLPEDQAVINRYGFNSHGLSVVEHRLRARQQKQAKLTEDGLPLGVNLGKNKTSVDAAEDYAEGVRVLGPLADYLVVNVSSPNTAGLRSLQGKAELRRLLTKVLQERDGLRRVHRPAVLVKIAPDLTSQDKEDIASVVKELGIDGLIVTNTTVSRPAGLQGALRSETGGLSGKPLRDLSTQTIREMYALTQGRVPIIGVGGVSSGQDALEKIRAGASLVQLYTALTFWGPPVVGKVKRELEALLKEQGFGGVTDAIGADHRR

Structure (SMILES)	IC50
Cc1cn(-c2cc(O[C@@H](C)C(F)(F)F)c(C(=O)Nc3c(F)cccc3Cl)cc2F)nc1[C@@H](C)O (relative stereo) [WO2022070069, Example 1]	0.48 nM
Cc1cn(-c2cc(O[C@@H](C)C(F)(F)F)c(C(=O)Nc3c(F)cccc3Cl)cc2F)nc1[C@H](C)O (relative stereo) [WO2022070069, Example 2]	0.3 nM
Cc1cn(-c2cc(O[C@@H](C)C(F)(F)F)c(C(=O)Nc3c(C)n[nH]c3Cl)cc2F)nc1[C@@H](C)O (relative stereo) [WO2022070069, Example 4]	0.22 nM
Cc1cn(-c2cc(O[C@@H](C)C(F)(F)F)c(C(=O)Nc3c(C)n[nH]c3Cl)cc2F)nc1[C@H](C)O (relative stereo) [WO2022070069, Example 5]	0.26 nM
Cc1cn(-c2cc(O[C@@H](C)C(F)(F)F)c(C(=O)Nc3c(F)cccc3Cl)cc2F)nc1C(C)(C)O [WO2022070069, Example 3]	0.5 nM
Cc1cn(-c2cc(O[C@@H](C)C(F)(F)F)c(C(=O)Nc3c(C)n[nH]c3Cl)cc2F)nc1C(C)(C)O [WO2022070069, Example 6]	0.38 nM
